The values that follow come from ChEMBL document CHEMBL2169761, “Exploring the interactions of unsaturated glucuronides with influenza virus sialidase” (J Med Chem, 2012).

Molecules are shown by their SMILES.

The first assay in a line: Inhibition of Influenza A virus sialidase N2.
For the molecule `CCC(CC)O[C@@H]1OC(C(=O)O)=C[C@H](N)[C@H]1NC(C)=O`, half-maximal inhibition (IC50) required 770 nM.
The molecule `CCC(CC)O[C@@H]1C=C(C(=O)O)C[C@H](O)[C@H]1NC(C)=O` had an IC50 of 15 nM.
In turn, `C=C[C@H]1CC(C(=O)O)=C[C@@H](OC(C)C)[C@@H]1NC(C)=O` gave a Ki of 45 nM.
Turning to `C/C=C\[C@@H]1C[C@H](C(=O)O)N[C@H]1[C@@H](NC(C)=O)[C@](C)(CCC)OC`, the affinity corresponds to a Ki of 0.2 nM.
Molecule `CC(=O)N[C@H]1[C@H]([C@H](O)[C@H](O)CO)OC(C(=O)O)=C[C@@H]1O` [NEU5AC2EN] had an IC50 of 1700 nM.
Regarding `CC(=O)N[C@H]1[C@H]([C@H](O)[C@H](O)CO)OC(C(=O)O)=C[C@@H]1NC(=N)N` [ZANAMIVIR], the IC50 was 5 nM.

A short description of a further assay: Inhibition of Influenza A virus sialidase N2 by fluorometric assay.
For `CCC(CC)O[C@@H]1OC(C(=O)O)=C[C@H](OC(C)=O)[C@H]1NC(C)=O`, the IC50 is 5390 nM. In other words, the single-digit micromolar range.
`C=CCO[C@H]1C=C(C(=O)O)O[C@@H](OC(CC)CC)[C@@H]1NC(C)=O` displayed an IC50 of 212000 nM.
Still for that read-out and setting: the same measure for `CCC(CC)O[C@@H]1OC(C(=O)O)=C[C@H](OC)[C@H]1NC(C)=O`: 1450 nM; for `CCO[C@H]1C=C(C(=O)O)O[C@@H](OC(CC)CC)[C@@H]1NC(C)=O`: 28000 nM.
Turning to `CCC(CC)O[C@@H]1OC(C(=O)O)=C[C@H](O)[C@H]1NC(C)=O`, the IC50 was found to be 320 nM. Against the preceding molecule, the IC50 is about 88-fold lower.
Molecule `CCO[C@H]1C=C(C(=O)O)O[C@@H]([C@H](O)[C@H](O)CO)[C@@H]1NC(C)=O` came in with an IC50 of 479000 nM.
`CC(=O)N[C@H]1[C@H]([C@H](O)[C@H](O)CO)OC(C(=O)O)=C[C@@H]1N` returned an IC50 of 680 nM. This IC50 is about 700-fold lower than that of the molecule before.
The molecule `CC(=O)N[C@H]1[C@H]([C@H](O)[C@H](O)CO)OC(C(=O)O)=C[C@@H]1O` [NEU5AC2EN] yielded an IC50 of 10500 nM.
Take `CC(=O)N[C@H]1[C@H]([C@H](O)[C@H](O)CO)OC(C(=O)O)=C[C@@H]1NC(=N)N` [ZANAMIVIR]: it took 12 nM to reach half-maximal inhibition (IC50).
